Measurements: patent US5399487A, “6-peptidylamino-1-naphthalenesulfonamides useful as fluorogenic proteolytic enzyme substrates” (Haematologic Technologies, Inc., priority 1993, dated 1995)

Experiments:
Assay type in all cases: biochemical
factor IIa = biological target: T1, factor IIa (Homo sapiens, UniProt P00734); test: Kinetic constants of substrate hydrolysis, Chromozyme TH vs TosGPR-ANSN (Table A); details: 22° C., 0.02M TBS pH 7.4, 0.15M NaCl
T1 construct: 0.5 nM human thrombin (IIa)
Protocol: (§1) The 6-amino-1-naphthalenesulfonamide detecting group increased the specificity of the overall kinetic efficiency of substrate hydrolysis by thrombin relative to the rate of hydrolysis of the p-nitroanilide substrate chromozyme TH (American Diagnostics). Commercially available substrate (Chromozyme TH, TosGPR-p-NA) was compared to a substrate of the present invention, Tosgly-pro-arg-ANSN(i-C4 H9) (TosGPR-ANSNH(i-C4 H9)) in an assay performed at 22° C. in 0.02M TBS buffer at pH 7.4, containing 0.15M NaCl.

factor Xa [1] = biological target: T2, factor Xa (Homo sapiens, UniProt P00742); test: as above; details: 22° C., 0.02M TBS pH 7.4, 0.15M NaCl
Protocol: as §1

thrombin (IIa) = biological target: T3, thrombin (IIa) (Homo sapiens, UniProt P00734); test: Fluorogenic enzyme assay (Example 5)
T3 construct: 0.5 nM human thrombin (IIa)
In short: (§2)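 Kinetic constants (Km, kcat) of substrate hydrolysis are derived by fitting initial rates to the Michaelis-Menten equation. Assays use TBS at pH 7.4 and 22° C, with fluorescence of the released naphthalenesulfonamide fluorophore recorded at 352/470 nm.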

factor Xa [2] = biological target: T2, factor Xa; test: Fluorogenic enzyme assay (Example 5)
In short: as §2

[3] = biological target: activated protein C (APC) (Homo sapiens, UniProt P04070); test: Fluorogenic enzyme assay (Example 5)
In short: as §2

plasmin (Plm) = plasmin (Plm) (Homo sapiens, UniProt P00747); test: Fluorogenic enzyme assay (Example 5); details: 10 nM enzyme, substrate 1 μM
In short: as §2

[4] = biological target: tissue plasminogen activator (t-PA) (Homo sapiens, UniProt P00750); test: Fluorogenic enzyme assay (Example 5); details: 100 nM enzyme, substrate 1 μM
In short: as §2

urokinase (u-PA) = urokinase (u-PA) (Homo sapiens, UniProt P00749); test: Fluorogenic enzyme assay (Example 5); details: 100 nM enzyme, substrate 1 μM
factor VIIa = biological target: T4, factor VIIa (Homo sapiens, UniProt P08709); test: Fluorogenic enzyme assay, relative hydrolysis rates (Table 8); details: at 100 hours; 10 nM enzyme, substrate 1 μM
T4 construct: directly measure the enzymatic activity of factor VIIa in the presence and absence of tissue factor and phospholipid
T4 sequence (P08709 213-466 limits assumed): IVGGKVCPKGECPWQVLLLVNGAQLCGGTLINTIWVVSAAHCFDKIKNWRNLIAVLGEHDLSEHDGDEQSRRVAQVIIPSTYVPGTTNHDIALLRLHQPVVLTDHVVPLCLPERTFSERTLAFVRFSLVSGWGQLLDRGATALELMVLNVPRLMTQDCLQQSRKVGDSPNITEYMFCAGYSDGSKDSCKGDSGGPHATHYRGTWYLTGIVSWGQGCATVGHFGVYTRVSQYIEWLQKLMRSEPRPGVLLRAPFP
T4 sequence (P08709 61-212 limits assumed): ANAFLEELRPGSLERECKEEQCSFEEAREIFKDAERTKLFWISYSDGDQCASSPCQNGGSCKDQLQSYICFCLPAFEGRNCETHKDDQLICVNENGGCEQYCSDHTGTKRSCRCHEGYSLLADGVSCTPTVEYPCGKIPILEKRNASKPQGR
Protocol: (§3) Enzyme assays (except factor VIIa assays, see below) were conducted in 20 mM Tris, 150 mM NaCl, pH 7.4 (TBS) at room temperature (22° C.). The final volume for all reaction mixtures was 2.0 ml. Fluorogenic substrates were dissolved in DMSO to a stock concentration of 10 mM. The 10 mM stock solution was diluted in TBS to the final working concentration prior to all assays. Enzyme was added to mixtures containing buffer components and substrate and the initial rate of substrate hydrolysis was measured as the change in fluorescent intensity over time, corresponding to the generation of the particular 6-amino-1-naphthalenesulfonamide fluorophore from the provided substrate. Quantitation of substrate hydrolysis was accomplished by establishing a standard curve from the appropriate fluorescent moiety. Fluorescence was monitored (continuously or discontinuously) using a Perkin Elmer fluorescence spectrophotometer, model MPF-44A, equipped with a standard chart recorder. The fluorophore was detected using monochrometers set at an excitation wavelength of 352 nm and an emission wavelength of 470 nm. Light scattering artifacts were minimized using a 399 nm cut off filter in the emission light beam.
Factor VII assays were conducted in 20 mM HEPES, 150 mM NaCl, 5 mM CaCl2, pH 7.4 (HBS) at 37° C. The final volume for all reactions was 1.6 ml. 6-(Mes-D-Leu-Gly-Arg)amino-1-(N,N-diethyl)naphthalenesulfonamide was dissolved in DMSO to a stock concentration of 10 mM. This 10 mM stock solution of was diluted in HBS to final working concentration prior to all assays. For reactions involving tissue factor (TF) and phospholipid vesicles, recombinant human tissue factor was solubilized in either 0.04% n-dodecyl octaethylene glycol (C12 E8) or 0.8% octyl glucoside. The TF/n-dodecyl octaethylene glycol was then relipidated into PCPS or PC vesicles by a 30 minute incubation step as described by Lawson & Mann, J. Biol. Chem. 266: 11317-11327 (1991). TF/octyl glucoside was relipidated into PC or PCPS vesicles by a thirty minute incubation step followed by exhaustive dialysis. The final concentration of tissue factor used in the studies described here ranged from 2 to 50 nM depending on the nature of the experiment.
Fifteen minutes prior to the start of all reactions factor VIIa was added to the reaction system. This incubation period was followed by the addition of substrate (1 μM to 400 μM) to the mixture to start the reaction. In experiments designed to determine kinetic constants of substrate hydrolysis, 50 nM rVIIa was used when no tissue factor was present in the reaction system, while 0.5 nM rVIIa was used when tissue factor was present in the reaction system. The rate of substrate hydrolysis was measured by change in fluorescence over time, which corresponded with the generation of the 6-amino-1-(N,N-diethyl)naphthalenesulfonamide from the provided substrate. The kinetic constants of 6-(Mes-D-Leu-Gly-Arg)amino-1-(N,N-diethyl)naphthalenesulfonamide hydrolysis as a function of factor VIIa/tissue factor complex assembly are shown in Table 10.

factor IXa = factor IXa (Homo sapiens, UniProt P00740); test: Fluorogenic enzyme assay (Example 5)
Protocol: as §3
The kinetic constants of substrate hydrolysis were determined using the non-linear least squares regression analysis program ENZFITTER (Cambridge, UK). This program was used to iteratively fit initial rates of substrate hydrolysis to the Michaelis-Menten equation and the kinetic constants of substrate hydrolysis (Km) and (kcat) were calculated.

T2 sequence (P00742 235-488 limits assumed): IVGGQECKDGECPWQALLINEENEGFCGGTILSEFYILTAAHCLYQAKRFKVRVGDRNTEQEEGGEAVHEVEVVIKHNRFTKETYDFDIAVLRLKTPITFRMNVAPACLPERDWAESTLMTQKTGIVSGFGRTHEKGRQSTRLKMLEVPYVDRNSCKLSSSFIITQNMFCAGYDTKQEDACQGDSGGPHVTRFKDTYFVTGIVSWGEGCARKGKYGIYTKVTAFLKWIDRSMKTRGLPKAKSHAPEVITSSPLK
T2 sequence (P00742 41-179 limits assumed): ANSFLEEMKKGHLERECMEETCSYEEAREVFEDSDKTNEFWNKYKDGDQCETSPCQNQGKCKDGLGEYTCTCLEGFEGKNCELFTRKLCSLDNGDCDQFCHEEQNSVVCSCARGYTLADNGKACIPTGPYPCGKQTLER
factor IXa, sequence (P00740 227-461 limits assumed): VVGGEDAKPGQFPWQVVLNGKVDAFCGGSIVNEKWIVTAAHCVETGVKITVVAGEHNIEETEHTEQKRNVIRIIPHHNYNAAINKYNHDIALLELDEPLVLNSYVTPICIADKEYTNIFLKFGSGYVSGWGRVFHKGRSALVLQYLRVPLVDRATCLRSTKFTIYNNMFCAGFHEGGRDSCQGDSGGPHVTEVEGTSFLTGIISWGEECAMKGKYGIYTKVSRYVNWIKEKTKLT
factor IXa, sequence (P00740 47-191 limits assumed): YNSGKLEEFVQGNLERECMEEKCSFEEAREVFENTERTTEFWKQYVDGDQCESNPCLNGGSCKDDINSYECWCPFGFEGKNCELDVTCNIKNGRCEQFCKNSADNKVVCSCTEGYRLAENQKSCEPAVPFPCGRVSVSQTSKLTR
activated protein C (APC), sequence (P04070 212-461 limits assumed): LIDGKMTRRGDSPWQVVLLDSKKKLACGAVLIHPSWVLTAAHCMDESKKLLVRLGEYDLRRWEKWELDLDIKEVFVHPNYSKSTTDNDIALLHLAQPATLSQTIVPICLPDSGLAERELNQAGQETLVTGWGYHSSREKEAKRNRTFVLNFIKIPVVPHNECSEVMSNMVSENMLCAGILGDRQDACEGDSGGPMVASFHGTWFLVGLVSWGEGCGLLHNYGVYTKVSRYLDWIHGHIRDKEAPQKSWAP
activated protein C (APC), sequence (P04070 43-197 limits assumed): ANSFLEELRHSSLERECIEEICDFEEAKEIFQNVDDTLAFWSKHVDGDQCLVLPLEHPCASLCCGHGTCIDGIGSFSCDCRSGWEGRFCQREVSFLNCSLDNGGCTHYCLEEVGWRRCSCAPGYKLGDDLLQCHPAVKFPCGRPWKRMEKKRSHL
tissue plasminogen activator (t-PA), sequence (P00750 36-562, species assumed): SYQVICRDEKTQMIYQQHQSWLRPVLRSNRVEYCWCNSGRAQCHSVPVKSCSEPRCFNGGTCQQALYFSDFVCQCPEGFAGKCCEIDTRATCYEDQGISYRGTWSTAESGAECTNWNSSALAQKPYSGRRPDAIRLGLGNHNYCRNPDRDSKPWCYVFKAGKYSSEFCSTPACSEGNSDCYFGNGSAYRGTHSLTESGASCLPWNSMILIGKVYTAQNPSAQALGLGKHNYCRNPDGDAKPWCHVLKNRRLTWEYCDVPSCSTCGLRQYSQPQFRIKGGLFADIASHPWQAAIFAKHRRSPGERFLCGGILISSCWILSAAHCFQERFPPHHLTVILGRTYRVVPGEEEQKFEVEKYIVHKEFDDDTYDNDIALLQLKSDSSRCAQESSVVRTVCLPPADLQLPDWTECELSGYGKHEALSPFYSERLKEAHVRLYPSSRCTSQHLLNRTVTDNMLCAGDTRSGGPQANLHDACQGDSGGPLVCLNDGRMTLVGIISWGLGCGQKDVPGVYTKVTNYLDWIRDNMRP
plasmin (Plm), sequence (P00747 581-810 limits assumed, species assumed): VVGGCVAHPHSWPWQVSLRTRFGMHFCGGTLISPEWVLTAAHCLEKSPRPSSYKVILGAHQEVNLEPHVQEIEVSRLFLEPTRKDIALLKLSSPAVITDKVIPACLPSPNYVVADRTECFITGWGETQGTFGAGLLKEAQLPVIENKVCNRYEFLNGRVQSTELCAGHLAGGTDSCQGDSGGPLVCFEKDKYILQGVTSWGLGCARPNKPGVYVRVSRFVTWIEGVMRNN
plasmin (Plm), sequence (P00747 97-580 limits assumed, species assumed): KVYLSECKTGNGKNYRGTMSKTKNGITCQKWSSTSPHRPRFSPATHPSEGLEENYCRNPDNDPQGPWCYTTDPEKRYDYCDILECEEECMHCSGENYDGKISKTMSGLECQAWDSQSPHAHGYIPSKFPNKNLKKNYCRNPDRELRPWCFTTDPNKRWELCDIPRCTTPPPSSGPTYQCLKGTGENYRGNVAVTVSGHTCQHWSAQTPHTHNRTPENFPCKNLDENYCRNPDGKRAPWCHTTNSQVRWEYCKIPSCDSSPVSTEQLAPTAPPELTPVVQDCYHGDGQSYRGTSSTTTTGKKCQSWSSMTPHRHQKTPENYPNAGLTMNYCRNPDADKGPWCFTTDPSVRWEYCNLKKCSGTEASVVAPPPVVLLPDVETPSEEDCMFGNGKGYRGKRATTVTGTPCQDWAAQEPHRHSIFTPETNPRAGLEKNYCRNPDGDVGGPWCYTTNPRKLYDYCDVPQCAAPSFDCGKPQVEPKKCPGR

Cc1ccc(S(=O)(=O)NCC(=O)N2CCC[C@H]2C(=O)N[C@@H](CCCNC(=N)N)C(=O)Nc2ccc3c(S(=O)(=O)NCC(C)C)cccc3c2)cc1 [TosGPR-ANSNH(i-C4 H9)]
Kcat (factor IIa): 45.6 | Km (factor IIa): 10.5 µM | Kcat (factor Xa [1]): 11.2 s⁻¹ | Km (factor Xa [1]): 132 µM | TIME TO 10% HYDROLYSIS (HOURS), IIa (thrombin (IIa); 1 nM enzyme (footnote c), substrate 1 μM): 0.01 h | Km (thrombin (IIa); Table 9): 11 µM | kcat, IIa (thrombin (IIa); Table 9): 52.6 s⁻¹ | TIME TO 10% HYDROLYSIS (HOURS), Xa (factor Xa [2]; 10 nM enzyme, substrate 1 μM): 0.05 h | Km (factor Xa [2]; Table 9): 35.3 µM | kcat /Km, Xa (factor Xa [2]; Table 9): 6800 M⁻¹ s⁻¹ | kcat, Xa (factor Xa [2]; Table 9): 2.4 s⁻¹ | TIME TO 10% HYDROLYSIS (HOURS), APC ([3]; 10 nM enzyme, substrate 1 μM): 0.02 h | Km ([3]; Table 9): 800 µM | kcat /Km, APC ([3]; Table 9): 150000 M⁻¹ s⁻¹ | kcat, APC ([3]; Table 9): 120 s⁻¹ | TIME TO 10% HYDROLYSIS (HOURS), Plm (plasmin (Plm)): 0.25 h | TIME TO 10% HYDROLYSIS (HOURS), t-PA [4]: 2 h | TIME TO 10% HYDROLYSIS (HOURS), u-PA (urokinase (u-PA)): 0.01 h | hydrolysis, VIIa (symbol d) (factor VIIa): d (hydrolysis at 100 hours was less than 10%.) | TIME TO 10% HYDROLYSIS (HOURS), IXa (factor IXa; 100 nM enzyme, substrate 1 μM): 42 h | Km (factor IXa; Table 9): 123 µM | kcat, IXa (factor IXa; Table 9): 0.3 s⁻¹ | kcat/Km, IXa (factor IXa; Table 9): 2400 M⁻¹ s⁻¹
